Experimental data reported in US9067949B2, “Benzofuro[3,2-c] pyridines and related analogs as serotonin sub-type 6 (5-HT6) modulators for the treatment of obesity, metabolic syndrome, cognition and schizophrenia” (Albany Molecular Research, Inc., priority 2011, dated 2015).

Assays:
human 5-HT6 receptor [1] = target: T1, human 5-HT6 receptor (Homo sapiens (Human), UniProt P50406); test: 5-HT6 radioligand binding assay (SPA format, [N-methyl-3H]-LSD); conditions: human 5-HT6 receptor membranes, 10 nM [N-methyl-3H]-LSD; Ki by Cheng-Prusoff; read-out: human 5HT6 Ki
Procedure, shortened: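 Human 5-HT6 receptor membranes were incubated overnight at room temperature with 10 nM [N-methyl-3H]-LSD and competitor in 50 mM Tris-HCl pH 7.5, 5 mM MgCl2, 1 mM EDTA, 4% DMSO, read by SPA. Nonspecific binding was defined with 100 μM 5-HT. IC50 came from ten-point duplicate curves; Ki via Cheng-Prusoff.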

human 5-HT6 receptor [2] = target: T1, human 5-HT6 receptor; test: Cell-based functional assay measuring cAMP production (HTRF); conditions: for Emax: agonist mode, relative to 10 μM 5-HT Emax control, read-out: Emax (agonism); for functional activity at the human 5HT6 receptor: cell based assay
Method: Compounds were further diluted to 4× assay concentrations with serum free media containing IBMX. […] Cells were lysed by addition of HTRFTM reagents (CisBio International) and after another 30 minute incubation, the plates were read on an AnalystGT (MDS) or SynergyHT (BioTek) microplate reader. […] Antagonist activity was expressed as the ratio of cAMP produced in a test well to the average cAMP produced in the EC80 challenge control wells. Agonist activity was determined after a full 30 minutes of incubation at room temperature, using 10 μM 5-HT as the Emax control. Cells were lysed by addition of HTRFTM reagents (CisBio International) and after another 30 minute incubation, the plates were read on an AnalystGT (MDS) or SynergyHT (BioTek) microplate reader. […] Agonist activity was expressed as the ratio of cAMP produced in a test well to the average cAMP produced in the Emax control wells. All cell-based experiments were performed in duplicate using ten concentrations of test compound with 5-HT (agonist mode) or a known antagonist (antagonist mode) included as additional controls in every run. […] For antagonists, the apparent dissociation constant (Kb) was calculated using a modified Cheng-Prusoff equation: Kb=IC50/([…][…])), where A=concentration of reference agonist in the assay and E[…]=EC50 value of the reference agonist.

T1 sequence (P50406 whole entry): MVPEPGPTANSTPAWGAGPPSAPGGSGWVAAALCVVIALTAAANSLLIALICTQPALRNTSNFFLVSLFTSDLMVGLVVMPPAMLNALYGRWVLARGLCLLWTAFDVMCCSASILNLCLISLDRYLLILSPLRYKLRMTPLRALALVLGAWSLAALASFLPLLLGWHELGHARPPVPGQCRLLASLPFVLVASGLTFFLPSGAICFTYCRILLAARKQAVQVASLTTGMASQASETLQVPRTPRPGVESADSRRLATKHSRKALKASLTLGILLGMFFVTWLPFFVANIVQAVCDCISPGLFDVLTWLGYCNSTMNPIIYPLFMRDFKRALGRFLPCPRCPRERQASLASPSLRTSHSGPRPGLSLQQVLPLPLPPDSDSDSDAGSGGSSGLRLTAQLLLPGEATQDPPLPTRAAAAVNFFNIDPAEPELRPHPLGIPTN

Cl.O=S(=O)(c1ccc(OC(F)(F)F)cc1)c1cc(Cl)c2oc3c(c2c1)CNCC3 [Example 112]
Ki (human 5-HT6 receptor [1]): 4.9 nM
Emax (human 5-HT6 receptor [2]): 19%
functional activity at the human 5HT6 receptor (human 5-HT6 receptor [2]): weak partial agonists

Cl.O=S(=O)(c1ccc(C(F)(F)F)cc1)c1cc(Cl)c2oc3c(c2c1)CNCC3 [Example 111]
Ki (human 5-HT6 receptor [1]): 3.3 nM
Emax (human 5-HT6 receptor [2]): 27%
functional activity at the human 5HT6 receptor (human 5-HT6 receptor [2]): weak partial agonists
